Reference: patent publication US12441727B2, “Tricyclic compounds as inhibitors of KRAS” (Incyte Corporation, priority 2021, dated 2025)

What was measured:
[1] = Human whole blood stability; assay type: in vitro ADME; details: percent remaining at 4 hr, 1 μM, 37° C.
Method: The whole blood stability of the exemplified compounds was determined by LC-MS/MS. The 96-Well Flexi-Tier™ Block (Analytical Sales & Services, Inc, Flanders, NJ) is used for the incubation plate containing 1.0 mL glass vials with 0.5 mL of blood per vial (pooled gender, human whole blood sourced from BIOIVT, Hicksville, NY or similar). Blood is pre-warmed in water bath to 37° C. for 30 minutes. 96-deep well analysis plate is prepared with the addition of 100 μL ultrapure water/well. 50 μL chilled ultrapure water/well is added to 96-deep well sample collection plate and covered with a sealing mat. 1 μL of 0.5 mM compound working solution (DMSO:water) is added to the blood in incubation plate to reach final concentrations of 1 μM, mixed by pipetting thoroughly and 50 μL is transferred 50 into the T=0 wells of the sample collection plate. Blood is allowed to sit in the water for 2 minutes and then 400 μL stop solution/well is added (acetonitrile containing an internal standard). The incubation plate is placed in the Incu-Shaker CO2 Mini incubator (Benchmark Scientific, Sayreville, NJ) at 37° C. with shaking at 150 rpm. At 1, 2 and 4-hr, the blood samples are mixed thoroughly by pipetting and 50 μL is transferred into the corresponding wells of the sample collection plate. Blood is allowed to sit in the water for 2 minutes and then 400 μL of stop solution/well is added. The collection plate is sealed and vortexed at 1700 rpm for 3 minutes (VX-2500 Multi-Tube Vortexer, VWR International, Radnor, PA), and samples are then centrifuged in the collection plate at 3500 rpm for 10 minutes (Allegra X-14R Centrifuge Beckman Coulter, Indianapolis, IN). 100 μL of supernatant/well is transferred from the sample collection plate into the corresponding wells of the analysis plate. The final plate is vortexed at 1700 rpm for 1 minute and analyze samples by LC-MS/MS. The peak area ratio of the 1, 2, and 4 hr samples relative to T=0 is used to determine the percent remaining. The natural log of the percent remaining versus time is used determine a slope to calculate the compounds half-life in blood (t1/2=0.693/slope).

[2] = system: KRAS_G12C pERK in MIA PaCa-2 cells; assay: Whole Blood pERK1/2 HTRF assay (KRAS_G12C WB pERK assay); assay type: cell-based, human; details: Homo sapiens, compound in whole blood, 4 hours, read-out: G12C_WB_pERK
In short: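 MIA PaCa-2 (KRAS G12C) cells were grown 2 days, then exposed for 4 h at 37 °C to compound spiked into whole blood (0.5% DMSO). After PBS washes and lysis, phospho-ERK1/2 was read by HTRF at 665/620 nm, and the IC50 came from a curve fit.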

KRAS G12C = KRAS G12C (Homo sapiens, UniProt P01116, G12C); assay: GDP-GTP exchange assay (KRAS_G12C exchange assay); assay type: biochemical; details: bodipy-loaded KRAS G12C 2.5 nM, SOS1 150 nM, 2 hours pre-incubation with inhibitor; read-out: G12C_exchange
In short: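 Bodipy-GDP-loaded KRAS G12C (2.5 nM final) preincubated 2 hours with compound in 25 mM Hepes pH 7.5, 50 mM NaCl, 10 mM MgCl2, 0.01% Brij-35; exchange started with 500 uM GppNHp and 150 nM SOS1, run 2 hours at ambient temperature. Fluorescence read at 485/520 nm; IC50 by four-parameter logistic fit.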

KRAS_G12C pERK = assay: Cellular pERK HTRF assay (KRAS_G12C pERK assay); assay type: cell-based, human; details: Homo sapiens, 4 h, KRAS G12C cells, 4 hours incubation with compound; read-out: G12C_pERK
In short: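 KRAS-mutant (G12C, G12D, G12V) and KRAS WT cancer cell lines, plated overnight in RPMI/10% FBS, were treated with compound (0.1% DMSO) at 37 °C for 4 h (G12C, G12V) or 2 h (G12D). Lysates were probed with anti-phospho-ERK1/2 HTRF antibody pair read at 665/620 nm; IC50 fitted.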

Chain of KRAS G12C (P01116 1-188 isoform P01116-2 G12C): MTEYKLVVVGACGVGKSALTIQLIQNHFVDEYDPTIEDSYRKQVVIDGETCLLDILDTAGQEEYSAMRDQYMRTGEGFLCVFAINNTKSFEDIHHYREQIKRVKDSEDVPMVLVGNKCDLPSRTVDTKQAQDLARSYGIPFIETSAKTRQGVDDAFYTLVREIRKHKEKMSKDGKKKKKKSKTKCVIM

| Human whole blood stability at 4 hr [1] | IC50 [2] [nM] | IC50 (KRAS G12C) [nM] | IC50 (KRAS_G12C pERK) [nM] | Compound |
| --- | --- | --- | --- | --- |
| ††† (WBS >90%) | 50 to 100 | ≤ 50 | ≤ 50 | C=C(F)C(=O)N1CC[C@H](n2nnc3c(N4CC(C)(N(C)CC)C4)nc4c(F)c(-c5c(C)c(C)cc6[nH]ncc56)c(C)cc4c32)C[C@H]1CC#N (single isomer, unassigned) [Example 30] |
| †† (WBS >70% but ≤90%) | 50 to 100 | ≤ 50 | ≤ 50 | C=CC(=O)N1CC[C@H](n2nnc3c(O[C@@H](C)[C@@H]4CCCN4C)nc4c(F)c(-c5cccc6c5c(CC#N)cn6C)c(C)cc4c32)C[C@H]1C (single isomer, unassigned) [Example 31b] |
| †† (WBS >70% but ≤90%) | ≤ 50 | ≤ 50 | ≤ 50 | C=CC(=O)N1CCC(n2nnc3c(O[C@@H](C)[C@@H]4CCCN4C)nc4c(F)c(-c5cccc6c5c(CC#N)cn6C)c(C)cc4c32)CC1 (single isomer, unassigned) [Example 32b] |
| †† (WBS >70% but ≤90%) | 50 to 100 | ≤ 50 | ≤ 50 | C=C(F)C(=O)N1CC[C@H](n2nnc3c(N4CC(C)(N(C)CC)C4)nc4c(F)c(-c5c(C)c(C)cc6[nH]ncc56)c(Cl)cc4c32)C[C@H]1CC#N (single isomer, unassigned) [Example 33a] |
| ††† (WBS >90%) | 50 to 100 | ≤ 50 | ≤ 50 | C=C(F)C(=O)N1CC[C@H](n2nnc3c(N4CC(C)(N(C)CC)C4)nc4c(F)c(-c5c(C)c(F)cc6[nH]ncc56)c(Cl)cc4c32)C[C@H]1CC#N (single isomer, unassigned) [Example 35a] |
| ††† (WBS >90%) | ≤ 50 | ≤ 50 | ≤ 50 | Cc1cc2c(nc(O[C@@H](C)[C@@H]3CCCN3C)c3nnn([C@H]4CCN(C(=O)/C=C/CF)[C@H](CC#N)C4)c32)c(F)c1-c1ccc2cnn(C)c2c1 [Example 7, 2-((2S,4S)-4-(6-fluoro-8-methyl-7-(1-methyl-1H-indazol-6-yl)-4-((S)-1-((S)-1-methylpyrrolidin-2-yl)ethoxy)-1H-[1,2,3]triazolo[4,5-c]quinolin-1-yl)-1-((E)-4-fluorobut-2-enoyl)piperidin-2-yl)acetonitrile] |
| †† (WBS >70% but ≤90%) | ≤ 50 | ≤ 50 | ≤ 50 | Cc1ccc(-c2c(C)cc3c(nc(O[C@@H](C)[C@@H]4CCCN4C)c4nnn([C@H]5CCN(C(=O)/C=C/CF)[C@H](CC#N)C5)c43)c2F)cn1 [Example 8, 2-((2S,4S)-4-(6-fluoro-8-methyl-7-(6-methylpyridin-3-yl)-4-((S)-1-((S)-1-methylpyrrolidin-2-yl)ethoxy)-1H-[1,2,3]triazolo[4,5-c]quinolin-1-yl)-1-((E)-4-fluorobut-2-enoyl)piperidin-2-yl)acetonitrile] |
| ††† (WBS >90%) | ≤ 50 | ≤ 50 | ≤ 50 | COC/C=C/C(=O)N1CC[C@H](n2nnc3c(O[C@@H](C)[C@@H]4CCCN4C)nc4c(F)c(-c5ccc(F)cc5)c(C)cc4c32)C[C@H]1CC#N [Example 10, 2-((2S,4S)-4-(6-fluoro-7-(4-fluorophenyl)-8-methyl-4-((S)-1-((S)-1-methylpyrrolidin-2-yl)ethoxy)-1H-[1,2,3]triazolo[4,5-c]quinolin-1-yl)-1-((E)-4-methoxybut-2-enoyl)piperidin-2-yl)acetonitrile] |
| ††† (WBS >90%) | ≤ 50 | ≤ 50 | ≤ 50 | Cc1cccc(-c2c(C)cc3c(nc(N4CC(C)(N(C)C)C4)c4ncn([C@H]5CCN(C(=O)/C=C/CF)[C@H](CC#N)C5)c43)c2F)c1Cl [Example 12, 2-((2S,4S)-4-(7-(2-chloro-3-methylphenyl)-4-(3-(dimethylamino)-3-methylazetidin-1-yl)-6-fluoro-8-methyl-1H-imidazo[4,5-c]quinolin-1-yl)-1-((E)-4-fluorobut-2-enoyl)piperidin-2-yl)acetonitrile] |
| †† (WBS >70% but ≤90%) | 100 to 1000 | ≤ 50 | ≤ 50 | C=C(F)C(=O)N1CC[C@H](n2cnc3c(O[C@@H](C)[C@@H]4CCCN4C)nc4c(F)c(-c5cccc(C)c5Cl)c(C)cc4c32)C[C@H]1CC#N [Example 13, 2-((2S,4S)-4-(7-(2-chloro-3-methylphenyl)-6-fluoro-8-methyl-4-((S)-1-((S)-1-methylpyrrolidin-2-yl)ethoxy)-1H-imidazo[4,5-c]quinolin-1-yl)-1-(2-fluoroacryloyl)piperidin-2-yl)acetonitrile] |
| ††† (WBS >90%) | ≤ 50 | ≤ 50 | ≤ 50 | COC/C=C/C(=O)N1CC[C@H](n2nnc3c(O[C@@H](C)[C@@H]4CCCN4C)nc4c(F)c(-c5ncc(F)c6ccccc56)c(C)cc4c32)C[C@H]1CC#N [Example 21, 2-((2S,4S)-4-(6-fluoro-7-(4-fluoroisoquinolin-1-yl)-8-methyl-4-((S)-1-((S)-1-methylpyrrolidin-2-yl)ethoxy)-1H-[1,2,3]triazolo[4,5-c]quinolin-1-yl)-1-((E)-4-methoxybut-2-enoyl)piperidin-2-yl)acetonitrile] |
